Source: article PMC5669199, “CM352 Reduces Brain Damage and Improves Functional Recovery in a Rat Model of Intracerebral Hemorrhage” (Journal of the American Heart Association: Cardiovascular …, 2017)

Tests used:
[1] = molecular target: T1, MMP‐12 (Homo sapiens, UniProt P39900); assay: MMP enzyme activity assay; type: biochemical; conditions: read-out: MMP Inhibitory Activity (IC50), MMP‐12
T1 construct: GenScript (contract testing)
Description: […]. Protease stock solutions (10 mmol/L) were diluted with assay buffer to make final test solutions containing no more than 2.0% DMSO. The samples were dispensed into plates; substrate was added and read with PHERAstar PLUS (BMG Labtech, Ortenberg, Germany) plate reader.

[2] = test system: rat model of collagenase‐induced ICH; assay: Hematoma and lesion volume by T2‐weighted MRI in ICH rat model; type: in vivo
Description: Glucose levels were analyzed before surgery (mean 144.3±22.1 mg/dL). Rats were placed in a stereotaxic frame (Stoelting Co, Wood Dale, IL) under sevoflurane anesthesia. After drilling of a small burr hole, 1 μL of saline containing 0.2 U/μL bacterial collagenase type VII (Sigma‐Aldrich Corp, St. Louis, MO) was injected into the right striatum (0.6 mm anterior to bregma, −3.0 mm lateral and 5.5 mm depth) using a Hamilton syringe with a 30 G needle. Injections took place over a 10‐minute period, and the needle remained in place for additional 10 minutes before removal (1 mm/min). The burr hole was filled with bone wax (Ethicon, Somerville, NJ), and the scalp incision was closed with sutures.
. The same experimental design and setting were used to assess the effect of late (3 hours) CM352 treatment. Required sample size was calculated from previous studies using the same model21 in order to be able to detect a 25% effect size on hematoma growth versus controls (2‐tailed t test). Six animals per group are required to detect this difference with a power (1−β) of 0.8 and α=0.05. N was calculated using EPIDAT software (http://www.sergas.es/Saude-publica/EPIDAT-4-2). All treatments were given as a single bolus (jugular) 60 minutes after the collagenase injection for ICH induction. […]
Gradient‐echo pilot scans were performed at the beginning of each imaging session for accurate positioning of the animal inside the magnet bore. Multislice axial T2‐weighted imaging was performed at baseline (1 hour after IHC induction), and at 3 hours, 24 hours, and 14 days after ICH. T2‐weighted images were acquired using a RARE (factor n=4) sequence with the following acquisition parameters: field‐of‐view 19.2×19.2 mm^2, image matrix 192×192 (isotropic in‐plane resolution of 0.1×0.1 mm/pixel), 18 consecutive slices of 0.5 mm thickness.
Magnetic resonance data analysis was performed using Para Vision (Bruker Medical, Ettlingen, Germany), and images were processed with ImageJ (W. S. Rasband, National Institutes of Health, Bethesda, MD: http://rsb.info.nih.gov/ij). The analyzed region of interest was the hematoma and lesion region. Hematoma volumes (basal and 3 and 24 hours) as well as lesion volume at day 14 were manually traced from T2 maps, and the mean signal intensity was measured by 2 well‐trained imaging analysts blind to the experimental conditions.

[3] = molecular target: bacterial collagenase type VII; assay: Collagenase activity assay (FALGPA substrate); type: biochemical; conditions: tested 10 nmol/L to 10 μmol/L; no significant effect
Description: Enzymatic assay of collagenase was performed using FALGPA (Sigma‐Aldrich Corp, St. Louis, MO) as substrate, according to the manufacturer's recommendations. Briefly, proteolysis of 1 mmol/L FALGPA by 2 U/mL bacterial collagenase type VII (Sigma‐Aldrich Corp, St. Louis, MO) in reaction buffer (50 mmol/L Tricine; 10 mmol/L CaCl2; 400 mmol/L NaCl) was monitored spectrophotometrically (345 nm) for 5 minutes, in the presence of CM352, phenanthroline, or vehicle.

[4] = molecular target: T2, MMP‐9 (Homo sapiens, UniProt P14780); assay: MMP enzyme activity assay; type: biochemical; conditions: read-out: MMP Inhibitory Activity (IC50), MMP‐9
T2 construct: GenScript (contract testing)
Description: (§1) Protease stock solutions (10 mmol/L) were diluted with assay buffer to make final test solutions containing no more than 2.0% DMSO. The samples were dispensed into plates; substrate was added and read with PHERAstar PLUS (BMG Labtech, Ortenberg, Germany) plate reader.

[5] = molecular target: T3, MMP‐7 (Homo sapiens, UniProt P09237); assay: MMP enzyme activity assay; type: biochemical; conditions: read-out: MMP Inhibitory Activity (IC50), MMP‐7
T3 construct: GenScript (contract testing)
T3 sequence (P09237 95-267): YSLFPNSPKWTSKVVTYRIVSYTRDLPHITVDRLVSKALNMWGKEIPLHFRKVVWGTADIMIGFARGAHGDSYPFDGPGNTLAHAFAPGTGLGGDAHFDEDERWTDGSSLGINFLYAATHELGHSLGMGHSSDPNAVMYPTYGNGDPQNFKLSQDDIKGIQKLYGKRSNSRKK
Description: as §1

[6] = molecular target: T4, MMP‐2 (Homo sapiens, UniProt P08253); assay: MMP enzyme activity assay; type: biochemical; conditions: read-out: MMP Inhibitory Activity (IC50), MMP‐2
T4 construct: GenScript (contract testing)
T4 sequence (P08253 110-660): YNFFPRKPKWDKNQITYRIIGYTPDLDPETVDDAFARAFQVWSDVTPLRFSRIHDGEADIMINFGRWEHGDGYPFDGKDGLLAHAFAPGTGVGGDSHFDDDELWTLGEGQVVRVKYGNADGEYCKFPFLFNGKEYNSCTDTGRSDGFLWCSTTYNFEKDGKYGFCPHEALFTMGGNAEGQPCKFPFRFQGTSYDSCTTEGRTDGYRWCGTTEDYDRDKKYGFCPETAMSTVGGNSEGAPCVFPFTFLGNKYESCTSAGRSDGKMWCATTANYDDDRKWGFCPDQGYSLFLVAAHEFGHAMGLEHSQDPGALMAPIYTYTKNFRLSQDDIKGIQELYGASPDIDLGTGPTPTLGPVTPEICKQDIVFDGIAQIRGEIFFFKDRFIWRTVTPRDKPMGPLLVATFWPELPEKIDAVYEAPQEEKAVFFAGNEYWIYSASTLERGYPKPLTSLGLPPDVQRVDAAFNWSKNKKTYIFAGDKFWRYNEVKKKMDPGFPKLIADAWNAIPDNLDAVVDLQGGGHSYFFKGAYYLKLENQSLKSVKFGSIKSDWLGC
Description: as §1

[7] = test system: wide panel of metalloenzymes, including cathepsins, caspases, kalikreins, and neutrophil proteases; parameters: method as in PMID 25686022; conditions: cited from earlier work
[8] = 1 mg/kg 3 hours after collagenase, 5 hours
[9] = 1 mg/kg 3 hours after collagenase, 24 hours
[10] = 1 mg/kg iv 1 hour after collagenase, 3 hours
[11] = 1 mg/kg iv 1 hour after collagenase, 24 hours

T2 sequence (P14780 94-707, species assumed): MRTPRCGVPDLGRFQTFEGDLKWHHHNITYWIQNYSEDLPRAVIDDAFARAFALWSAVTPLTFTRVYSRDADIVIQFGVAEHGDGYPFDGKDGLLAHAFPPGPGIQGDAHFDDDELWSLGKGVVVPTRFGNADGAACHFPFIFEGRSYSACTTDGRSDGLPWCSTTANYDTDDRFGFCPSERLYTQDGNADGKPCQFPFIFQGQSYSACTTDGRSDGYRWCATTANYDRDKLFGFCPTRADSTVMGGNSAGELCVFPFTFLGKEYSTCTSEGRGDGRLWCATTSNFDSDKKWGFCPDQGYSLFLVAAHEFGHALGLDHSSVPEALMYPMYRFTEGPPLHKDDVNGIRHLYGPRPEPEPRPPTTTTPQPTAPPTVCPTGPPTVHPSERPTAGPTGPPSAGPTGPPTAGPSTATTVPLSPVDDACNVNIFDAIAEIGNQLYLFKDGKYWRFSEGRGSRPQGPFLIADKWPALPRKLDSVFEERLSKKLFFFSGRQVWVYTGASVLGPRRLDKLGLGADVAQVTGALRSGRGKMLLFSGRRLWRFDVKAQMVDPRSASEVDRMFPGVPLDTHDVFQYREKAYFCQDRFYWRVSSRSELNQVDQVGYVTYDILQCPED
T1 sequence (P39900 106-470, species assumed): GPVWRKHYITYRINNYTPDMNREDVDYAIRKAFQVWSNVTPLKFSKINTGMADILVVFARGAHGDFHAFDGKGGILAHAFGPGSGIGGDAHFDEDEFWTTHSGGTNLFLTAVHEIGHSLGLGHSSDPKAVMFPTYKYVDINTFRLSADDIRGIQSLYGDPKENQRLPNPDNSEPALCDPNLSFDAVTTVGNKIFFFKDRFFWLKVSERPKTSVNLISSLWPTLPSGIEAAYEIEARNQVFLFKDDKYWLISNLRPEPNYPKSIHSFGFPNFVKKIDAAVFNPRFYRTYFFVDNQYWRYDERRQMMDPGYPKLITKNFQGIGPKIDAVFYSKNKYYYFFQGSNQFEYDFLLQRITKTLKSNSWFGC

CNC(=O)c1ccc(Oc2ccc(S(=O)(=O)[C@]3(C(=O)NO)CCC4(CCNCC4)C3)cc2)cc1 [CM352, 4‐[4‐[[(3R)‐3‐(Hydroxycarbamoyl)‐8‐azaspiro[4.5]decan‐3‐yl]sulfonyl]phenoxy]‐N‐methylbenzamide]
IC50 [1]: 7.6 nM | hematoma expansion [2, 8]: 115±17% | reduction of hematoma expansion versus control [2, 8]: 62% | hematoma expansion [2, 9]: 114±50% | reduction of hematoma expansion versus control [2, 9]: 58% | lesion size versus control ([2]; 1 mg/kg 3 hours after collagenase, up to day 14, P<0.05): differences in lesion size were patent between the groups | hematoma volume after late administration ([2]; 1 mg/kg 3 hours after collagenase, versus control P<0.01): hematoma stabilized | hematoma expansion [2, 10]: 200±86% | reduction of hematoma expansion versus control [2, 10]: 35% | reduction in hematoma volume compared with controls ([2]; 1 mg/kg iv 1 hour after collagenase, 3 hours after ICH): 29% | hematoma expansion [2, 11]: 133±63% | reduction of hematoma expansion versus control [2, 11]: 56% | reduction in hematoma volume compared with controls ([2]; 1 mg/kg iv 1 hour after collagenase, 24 hours after ICH): 46% | lesion volume smaller than controls ([2]; 1 mg/kg iv 1 hour after collagenase, 14 days): 48% | hematoma volume at 1 hour (basal) ([2]; early‐treatment experiment, 1 hour after collagenase, before treatment, n=6): 23.2±3.5 mm^3 | hematoma volume at 1 hour ([2]; late‐treatment experiment, 1 hour after collagenase, before treatment, n=6): 16.0±1.9 mm^3 | hematoma volume at 3 hours ([2]; late‐treatment experiment, 3 hours after collagenase, time of treatment, n=6): 39.8±6.7 mm^3 | IC50 [3]: > 10000 nM | IC50 [4]: 10 nM | IC50 [5]: 16000 nM | IC50 [6]: 8.4 nM | off‐target effect on metalloenzyme panel [7]: no significant effect
